For one assay, the target named is T1, BCL-2 (Homo sapiens, UniProt P10415).
T1 construct: expression of target proteins in cells; endogenous in cells
Put plainly: Western blot degradation of BCL-2. The conditions noted are these: Molt-4 Cell; 24 hours. The format is cell-based. As to the method:
Conventional Western blot assay was performed to evaluate the effects of the compounds of the present disclosure on the expression of target proteins in cells.
(1) Cell Seeding and Protein Harvesting: The selected cells were processed according to the cell seeding procedure and protein harvesting procedure in Table II-2.
(2) To the collected supernatant, 5×SDS sample loading buffer was added, followed by denaturation at 95 °C for 5 minutes. The denatured samples were then separated by SDS-PAGE electrophoresis on a polyacrylamide gel. Proteins were transferred to a nitrocellulose membrane (0.45 μm NC membrane), blocked with blocking buffer at room temperature for 1 hour, and subjected to antibody incubation and development procedures according to the antibody manufacturer's instructions (Cell Signaling Technology).
Half-Maximal Degradation Concentration value (the drug concentration required for degrading proteins by 50%, abbreviated as DC50) reads method: comparing the grayscale values of Western blot bands from drug-treated samples with those from blank DMSO-treated controls, and identifying the drug concentration range at which the grayscale value is half that of the DMSO-treated control bands.
DC50 values can be calculated using ImageJ software to measure grayscale values of Western blot bands from drug-treated samples. The concentration-response curve is fitted to estimate the drug concentration corresponding to half the grayscale value.
Target protein remaining (%) refers to the percentage of target protein remaining in cells after treatment with protein degrader compounds.
Calculation method for target protein remaining (%): Use ImageJ software to measure grayscale values of Western blot bands from drug (protein degrader)-treated samples. The grayscale value of drug-treated bands is divided by that of internal control protein bands, and the resulting quotient is normalized to obtain the relative percentage of remaining target protein after protein degrader treatment.
Target protein degradation rate (%)=1−target protein remaining (%).
A general note: Immunoblotting shows a protein as a band on a membrane.

The subject of assay [1] is Human diffuse large B-cell lymphoma cell line (WSU-DLCL2). Put plainly: Inhibition of WSU-DLCL2 cell proliferation (CellTiter luminescent viability). The format is cell-based. To be noted: for inhibition at 0.01 µM / inhibition at 0.5 µM: Homo sapiens; for inhibition at 0.01 µM: WSUDLCL2, 10 nM, read-out: Inhibition Rate at 10 nM (%); for inhibition at 0.5 µM: WSUDLCL2, 500 nM, read-out: Inhibition Rate at 500 nM (%). On the procedure:
(§1) The tumor cells used herein were cultured in a cell culture medium listed in table 3 at 37 °C in an incubator with 5% CO2. Prior to experimentation, all cell lines used were correctly identified by STR profiling, and tested negative for mycoplasma contamination using a mycoplasma detection kit through routine screenings.
(§2) The IC50 values of the compounds of the present disclosure (including the compounds in Table 1, Table 2, and Examples 1-468) were determined using the CellTiter-Meiluncell Luminescent Cell Viability Assay Kit from Dalian Meilun Biotech Co., Ltd. The detailed procedure is as follows: Tumor cells were seeded in 96-well cell culture plates at the densities specified in Table 4. On the following day, the test compounds of the present disclosure were subjected to serial dilution. The dilution can be performed according to one of the following two methods: • (1) The first dilution method: The test compounds of the present disclosure (including the compounds in Table 1, Table 2, and Examples 1-468) were subjected to 5-fold serial dilutions starting from a highest concentration of 2000 μM, resulting in a total of 9 concentrations from high to low (2000, 400, 80, 16, 3.2, 0.64, 0.128, 0.0256, 0.00512 μM). Subsequently, 0.5 μL of the test compound dilution was transferred into the 96-well plate containing the cells, with each well containing 100 μL of cell culture medium. […] Into the 96-well plate, the diluted test compounds and corresponding detection reagents were added, resulting in final test compound concentrations of 500 nM and 10 nM, respectively. The experimental procedure is described below using the diluted 2 μM test compound as an example.
(§3) 0.5 μL of the aforementioned diluted compound of the present disclosure (including the compounds in Table 1, Table 2, and Examples 1-468) was added to the seeded cells in 100 μL of medium, yielding a final test compound concentration of 10 nM. After the cells were treated with the compounds of the present disclosure for a specified period, the cell viability assay reagent was added to the culture medium according to the kit's instructions to determine cell viability. […] All controls were treated using the same procedure as the compounds of the present disclosure. The growth inhibition curves for the compounds of the present disclosure were plotted using Prism GraphPad software, and the IC50 values were calculated therefrom.

Assay [2] relates to Human Acute T Lymphoblastic Leukemia Cells (Molt-4). Put plainly: Inhibition of Molt-4 cell proliferation (CellTiter luminescent viability). The format is cell-based. The conditions noted are these: for inhibition at 0.01 µM / inhibition at 0.5 µM: Homo sapiens, MOLT-4, Molt-4; for inhibition at 0.01 µM / Inhibition Rate at 10 nM (%): 10 nM; for inhibition at 0.01 µM: read-out: Inhibition Rate at 10 nM (%); for inhibition at 0.5 µM / Inhibition Rate at 500 nM (%): 500 nM; for inhibition at 0.5 µM: read-out: Inhibition Rate at 500 nM (%); for Inhibition Rate at 10 nM (%) / Inhibition Rate at 500 nM (%): Molt-4.

For assay [3], the system named is Human myeloid monocytic leukemia cell line (MV-4-11). Put plainly: Inhibition of MV-4-11 cell proliferation (CellTiter luminescent viability). The format is cell-based. To be noted: for inhibition at 0.01 µM / inhibition at 0.5 µM: Homo sapiens, MV4-11; for inhibition at 0.01 µM: read-out: Inhibition Rate at 10 nM (%); for inhibition at 0.5 µM: read-out: Inhibition Rate at 500 nM (%). The procedure, abridged: (§4)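 IC50 is fitted from luminescent viability (CellTiter-Meiluncell) curves. Nine-point, 5-fold dilution series (top stock 2000 μM) are added at 0.5 μL per 100 μL medium to cells plated the day before, with growth at 37 °C and 5% CO2.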

For assay [4], the system named is Human large cell immunoblastic lymphoma cell line SR. Put plainly: Inhibition of SR cell proliferation (CellTiter luminescent viability). To be noted: 96 hours. The format is cell-based. The procedure, abridged: as §4
Assay [5] concerns Human non-small cell lung cancer cell line NCI-H2228. Put plainly: Inhibition of H2228 cell proliferation (CellTiter luminescent viability). To be noted: Table IB2, ALK inhibitor-based, 96 hours. On the procedure: as §1, §2, §3
The target of assay [6] is T2, human Cereblon WT GST-tagged protein (CRBN) (Homo sapiens, UniProt Q96SW2).
T2 construct: purchased CISBIO 64BDCRBNPEH
Put plainly: CRBN binding by HTRF (Cereblon binding kit). Summed up: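 GST-tagged human Cereblon WT was incubated 3 h at room temperature with compound, thalidomide-Re tracer and Eu anti-GST antibody. Final compound concentrations were 10 to 0.00064 µM (7 points) or 2 and 0.5 µM. Inhibition rate was calculated from HTRF 665/620 nm ratios versus solvent and blank controls.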
For orientation: TR-FRET usually uses a lanthanide donor and a delayed reading to cut background.

The structures appear in SMILES notation. Where two headings read alike, the source gives them in different places.

By inhibition is commonly meant the change of the read-out against control, counted positive when it falls.

T2 sequence (Q96SW2 whole entry): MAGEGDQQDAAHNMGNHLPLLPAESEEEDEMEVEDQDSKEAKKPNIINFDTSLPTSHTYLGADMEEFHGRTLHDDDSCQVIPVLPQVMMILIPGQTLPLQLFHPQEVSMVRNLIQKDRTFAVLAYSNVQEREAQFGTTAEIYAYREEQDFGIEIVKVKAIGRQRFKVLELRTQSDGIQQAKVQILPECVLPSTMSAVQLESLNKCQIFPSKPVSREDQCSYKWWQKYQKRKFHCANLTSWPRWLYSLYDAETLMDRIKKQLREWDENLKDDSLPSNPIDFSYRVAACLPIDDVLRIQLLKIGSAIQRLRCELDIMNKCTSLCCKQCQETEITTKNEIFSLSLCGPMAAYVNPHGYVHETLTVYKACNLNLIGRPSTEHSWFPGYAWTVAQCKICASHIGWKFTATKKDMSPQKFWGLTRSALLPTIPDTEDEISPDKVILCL
T1 sequence (P10415 whole entry): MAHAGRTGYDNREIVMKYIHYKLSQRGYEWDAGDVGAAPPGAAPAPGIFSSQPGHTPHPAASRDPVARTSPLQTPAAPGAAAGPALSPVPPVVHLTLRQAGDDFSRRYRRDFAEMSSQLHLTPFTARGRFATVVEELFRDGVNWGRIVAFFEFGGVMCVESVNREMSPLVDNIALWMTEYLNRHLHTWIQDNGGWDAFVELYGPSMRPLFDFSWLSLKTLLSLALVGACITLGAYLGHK

For `CC1(C)CCC(c2ccc(Cl)cc2)=C(CN2CCN(c3ccc(C(=O)NS(=O)(=O)c4ccc(N[C@H](CCN5CC6CCC(C5)N6Cc5ccc6c(c5)C(=O)N(N5CCC(=O)NC5=O)C6=O)CSc5ccccc5)c(S(=O)(=O)C(F)(F)F)c4)cc3)CC2)C1` [GT-07817, 4-(4-((4′-chloro-4,4-dimethyl-3,4,5,6-tetrahydro-[1,1′-biphenyl]-2-yl)methyl)piperazin-1-yl)-N-((4-(((2R)-4-(8-((2-(2,4-dioxotetrahydropyrimidin-1(2H)-yl)-1,3-dioxoisoindolin-5-yl)methyl)-3,8-diazabicyclo[3.2.1]octan-3-yl)-1-(phenylthio)butan-2-yl)amino)-3-((trifluoromethyl)sulfonyl)phenyl)sulfonyl)benzamide], the “Degradation of substrate protein BCL-2 (substrate protein remaining %)” value on BCL-2 is recorded as “A (0%≤substrate protein remaining %≤80%)”.
As to `C[C@@H]1CNC(=O)c2cc3ccc(C(=O)Nc4cnn(Cc5ccc(N6CCC(N7CCN(Cc8ccc9c(c8)CN(N8CCC(=O)NC8=O)C9=O)CC7)CC6)cc5)c4)nc3n21` [GT-08151, (R)—N-(1-(4-(4-(4-((2-(2,4-dioxotetrahydropyrimidin-1(2H)-yl)-1-oxoisoindolin-5-yl)methyl)piperazin-1-yl)piperidin-1-yl)benzyl)-1H-pyrazol-4-yl)-9-methyl-6-oxo-6,7,8,9-tetrahydropyrido[3′,2′: 4,5]pyrrolo[1,2-a]pyrazine-2-carboxamide], the inhibition at 0.01 µM in assay [1] lay within 10 to 15%; in assay [2] (Table IN2), 0 to 5%; in assay [2] (Table IN3) it was 20 to 30%; in assay [3] (MV-4-11, 10 nM) it was 5 to 10%. The inhibition at 0.5 µM in assay [1] was in the range of 50 to 60%; in assay [2] (Table IN2), 30 to 50%; in assay [2] (Table IN3), 10 to 15%; in assay [3] (MV-4-11, 500 nM) it was 80 to 100%.
On to `CCc1cc2c(cc1N1CCC(N3CCOCC3)CC1)C(C)(C)c1[nH]c3cc(C#N)ccc3c1C2=O` [alectinib, Alectinib, reference compound], for which the IC50 in assay [4] (Table IB1, ALK inhibitor-based, read-out: Inhibitory activity (IC50, nM) on tumor cell proliferation, SR) lay in the range of 1000 to 5000 nM. Further, the “Inhibition Rate at 10 nM (%)” value in assay [4] (Table IB2, ALK inhibitor-based, 10 nM) is “IBa4 (15% ≤ IBa4 < 20%)”. In addition, the “Inhibition Rate at 500 nM (%)” value in assay [4] (Table IB2, ALK inhibitor-based, 500 nM) is “IBa10 (80% ≤ IBa10 < 90%)”. Further, the inhibition at 0.01 µM in assay [3] (Table IB2, ALK inhibitor-based, MV-4-11, 10 nM, 96 hours) lay within 5 to 10%; in assay [5] (H2228, 10 nM, read-out: Inhibition Rate at 10 nM (%)) it was 5 to 10%. Further, the inhibition at 0.5 µM in assay [3] (Table IB2, ALK inhibitor-based, MV-4-11, 500 nM, 96 hours) was 30 to 45%; in assay [5] (H2228, 500 nM, read-out: Inhibition Rate at 500 nM (%)) it was 20 to 30%. Besides, the “Inhibition Rate at 0.5 μM (%)” value in assay [6] (0.5 μM) is listed as “a (0% < a ≤ 10%)”. Besides, in assay [6] (2 μM), the “Inhibition Rate at 2 μM (%)” value is recorded as “a (0% < a ≤ 10%)”.
As to `C[C@@H]1CNC(=O)c2cc3ccc(C(=O)Nc4cnn(Cc5ccc(N6CCN(Cc7ccc8c(c7)CN(N7CCC(=O)NC7=O)C8=O)CC6)cc5)c4)nc3n21` [GT-08149, (R)—N-(1-(4-(4-((2-(2,4-dioxotetrahydropyrimidin-1(2H)-yl)-1-oxoisoindolin-5-yl)methyl)piperazin-1-yl)benzyl)-1H-pyrazol-4-yl)-9-methyl-6-oxo-6,7,8,9-tetrahydropyrido[3′,2′: 4,5]pyrrolo[1,2-a]pyrazine-2-carboxamide], the inhibition at 0.01 µM in assay [1] is 5 to 10%; in assay [2] (Table IN2) it was -5 to 0%; in assay [3] (MV-4-11, 10 nM), 5 to 10%. Further, the inhibition at 0.5 µM was 40 to 50% in assay [1]; 30 to 50% in assay [2] (Table IN2); 70 to 80% in assay [3] (MV-4-11, 500 nM); 20 to 30% in assay [6] (0.5 μM, read-out: Inhibition Rate at 0.5 μM (%)). Also, in assay [6] (2 μM, read-out: Inhibition Rate at 2 μM (%)), the inhibition at 2 µM fell in the range of 53 to 60%.
`CC(C)CCN1c2nc(Nc3cc(F)c(O)c(F)c3)ncc2N(C)C(=O)C1C` (stereo not shown) [BI-D1870, reference compound]: the “Inhibition Rate at 10 nM (%)” value is on record as “INd1 (0% < INd1 < 5%)” in assay [1] (10 nM); “INb2 (−15% < INb2 < −5%)” in assay [2] (Table IN2); “INc1 (0% < INcl < 5%)” in assay [2] (Table IN3); “INa3 (−5% ≤ INa3 ≤ 0%)” in assay [3] (MV-4-11, 10 nM). Moreover, the “Inhibition Rate at 500 nM (%)” value in assay [1] (500 nM) was “INd5 (20% ≤ INd5 < 30%)”; in assay [2] (Table IN2) it was “INb5 (5% ≤ INb5 < 10%)”; in assay [2] (Table IN3), “INc3 (10% ≤ INc3 < 15%)”; in assay [3] (MV-4-11, 500 nM), “INa7 (20% ≤ INa7 < 30%)”.

(Values after patent US20260364184A1, “COMPOUND BASED ON OXOISOINDOLINYL-SUBSTITUTED TETRAHYDROPYRIMIDINE-DIONE AND USE THEREOF” (GLUETACS THERAPEUTICS (SHANGHAI) CO., LTD., priority 2023, published 2026).)
